Experimental data from patent US20120020915A1, “Compounds and Methods for Treating Cancer and Diseases of the Central Nervous System” (QUEENS UNIVERSITY AT KINGSTON, priority 2007, published 2012).
“Also recorded” adds a separate entry of the source.

Experiments:
[1] = Toxicity / tolerability of QC-56 in SCID mice (pilot study); assay type: in vivo
Description: IV.I (iii) Bioassay Species and strain: Mouse (Mus musculus); SCID, male Age at dosing initiation: 8 weeks old.
Once tumors became palpable, mice were randomized into experimental groups and the treatment was initiated.

[2] = test system: CD31-positive vessels in SKMEL-V+ tumors; test: CD31 immunohistochemistry / microvessel density of SKMEL-V+ tumors; assay type: in vivo, Mouse (Mus musculus), male SCID; settings: QC-56 particularly at 60 mg/kg, hydrochloride, 60 mg/kg
Description: Cell cultures were maintained in 5% CO2/95% air at 37° C. SKMEL-V (human melanoma cells). SKMEL-V cells were derived from SKMEL-24 cells (ATCC) by overexpression of mouse VEGF. […] Tumors were either snap frozen in liquid nitrogen or fixed in 10% buffered formalin and embedded in paraffin. […] BD PharMingen, San Diego, Calif.). […] Sections were rehydrated in PBS and then blocked with 5% normal goat serum for 1 h. The sections were then incubated overnight at 4° C. with CD31 antibody diluted 1:25 in 3% BSA-PBS. […] Paraffin-embedded material was used for Harris' hematoxylin. Microvessel density was quantified using a method described by Weidner et al ([…], and Folkman […]. Med, 1991; 324:1-8). Briefly, randomly vascularized areas were selected (hot spots) under 40× field and 100× fields. Then a 400× field was used to count microvessels in each of these areas. Single endothelial cells or clusters of endothelial cells with or without lumen were considered to be individual vessels. […] All slides were examined blindly with no prior knowledge of the treatment status.

HO-1 (rat spleen) = biological target: T1, HO-1 (rat spleen) (Rattus norvegicus, UniProt P06762); test: HO enzymatic activity, rat spleen microsomal fraction (CO formation from methemalbumin); assay type: biochemical; settings: CO formation from methemalbumin, mean ± SD of replicate experiments, read-out: IC50 HO-1 (rat spleen/μM)
T1 construct: Spleen microsomes were used as a source of HO-1; from tissue; host or cells: spleen microsomal fraction of adult male Sprague-Dawley rats
T1 sequence (P06762 1-289): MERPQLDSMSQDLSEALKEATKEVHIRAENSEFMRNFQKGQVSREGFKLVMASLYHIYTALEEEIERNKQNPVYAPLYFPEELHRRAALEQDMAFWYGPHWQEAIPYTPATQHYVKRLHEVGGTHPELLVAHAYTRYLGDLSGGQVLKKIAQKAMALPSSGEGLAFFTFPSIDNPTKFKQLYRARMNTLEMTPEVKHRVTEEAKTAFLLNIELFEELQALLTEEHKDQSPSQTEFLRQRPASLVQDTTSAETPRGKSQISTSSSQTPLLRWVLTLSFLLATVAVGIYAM

HO-2 (rat brain) = biological target: T2, HO-2 (rat brain) (Rattus norvegicus, UniProt P23711); test: HO enzymatic activity, rat brain microsomal fraction (CO formation from methemalbumin); assay type: biochemical; settings: CO formation from methemalbumin, mean ± SD of replicate experiments, read-out: IC50 HO-2 (rat brain)/μM)
T2 construct: brain microsomes were used as a source of HO-2; from tissue; host or cells: brain microsomal fraction of adult male Sprague-Dawley rats
T2 sequence (P23711 1-315): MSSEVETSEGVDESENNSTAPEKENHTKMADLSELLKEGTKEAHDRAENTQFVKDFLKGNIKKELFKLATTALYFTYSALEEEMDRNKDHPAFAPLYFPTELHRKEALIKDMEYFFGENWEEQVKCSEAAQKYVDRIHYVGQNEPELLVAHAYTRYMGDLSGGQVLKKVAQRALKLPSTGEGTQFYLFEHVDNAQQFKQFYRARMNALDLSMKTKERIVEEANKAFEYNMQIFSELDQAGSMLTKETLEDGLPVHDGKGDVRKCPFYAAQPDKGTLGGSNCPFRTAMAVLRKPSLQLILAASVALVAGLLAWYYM

Structure (SMILES) | tolerability after multiple administrations ([1]; 50 mg/kg) | tolerability at repeated doses ([1]; 30 and 60 mg/kg, intraperitoneal, hydrochloride) | toxic single dose ([1]; intraperitoneally, single dose) [mg/kg] | vessel count / tumor vascularization (CD31) [2] | IC50 (HO-1 (rat spleen)) [µM] | IC50 (HO-2 (rat brain)) [µM]
Brc1ccc(CCC2(Cn3ccnc3)OCCO2)cc1.Cl [QC-56, 1-((2-(2-(4-Bromophenyl)ethyl)-1,3-dioxolan-2-yl)methyl)-1H-imidazole hydrochloride] | well tolerated | well tolerated at repeated doses of 30 and 60 mg/kg with minor changes in body weights with no apparent toxicity; also recorded: well tolerated | ≥ 100 | significant decrease in the size and number of blood vessels |  | 
Cl.FC[C@@H]1CO[C@@](CCc2ccc(Cl)cc2)(Cn2ccnc2)O1 [QC-47, (2R,4S)-1-{2-[2-(4-Chlorophenyl)ethyl]-4-fluoromethyl-[1,3]dioxolan-2-ylmethyl}-1H-imidazole hydrochloride] |  |  |  |  | 6 ± 3 | > 100
